Data as given in paper PMC5502391 (Chemical Science, 2015).

Molecular target: avidin-bound TOPI-5 (Gallus gallus, UniProt P02701)
Assay: Displacement assay, TOPI-5–avidin complex
Format: binding
Conditions: complex 90 nM, compound 50 µM

Sequence of avidin-bound TOPI-5 (P02701 25-152): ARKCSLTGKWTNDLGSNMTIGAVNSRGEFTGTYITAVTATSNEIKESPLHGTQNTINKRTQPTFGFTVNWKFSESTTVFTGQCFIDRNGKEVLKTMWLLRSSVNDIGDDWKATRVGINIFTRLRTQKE

SMILES: O=C(O)CCCC[C@@H]1SC[C@@H]2NC(=O)N[C@@H]21 [biotin]
- displacement of avidin-bound TOPI-5: displacement
